Assay results as given in article PMC9951879, “Synthesis of New Shogaol Analogues as NRF2 Activators and Evaluation of Their Anti-Inflammatory Activity, Modes of Action and Metabolic Stability” (Antioxidants, 2023).

Columns and labels:
[1] = Vybrant MTT cytotoxicity assay in BV-2 cells together with LPSEc; assay type: cell-based; conditions: mouse, BV-2 microglial cells, BV-2 cells plus LPSEc 200 ng/mL, read-out: cell viability
Protocol: The safe dose of the test compounds on murine hepatoma (Hepa1c1c-7) and mouse microglial cells (BV-2) was assessed by determining their cytotoxicity using Vybrant® MTT Cell Proliferation Assay Kit (Thermo Fisher Scientific, USA) following the manufacturer’s protocol. In the case of BV-2 cells, the cytotoxicity of the test compounds was assessed together with E. coli lipopolysaccharide (LPSEc), 200 ng/mL. The cell density was 5 × 10^5 cells/well (in a 96-well plate), and they were preincubated for 24 h. The test compounds (10, 5, 2.5, 1.25, and 0.625 μM) were then added to each well (in triplicate) and incubated for another 24 h. The solution’s absorbance was measured using Spectramax (Molecular Devices, San Jose, California, USA) M3 microplate reader. The cell viability was calculated using the following formula, and the results are presented as mean ± SD. Percent cell viability %=Atreated cells−Ablank /Auntreated cells−Ablank×100%

GSTM2 = assay: qPCR gene expression in Hepa1c1c-7 cells: GSTM2; assay type: cell-based, mouse; conditions: 1 μM, 48 h, Hepa-1c1c7 cells
Protocol: (§1) Hepa1c1c-7 cells were treated with STCs (1 μM) for 48 h, and the total RNA was isolated using QIAzol®lysis reagent (Qiagen, Germany). Next, cDNA was synthesised using the ReverTra Ace® qPCR RT Master Mix Kit (Toyobo Research Reagents, Osaka, Japan). Quantitative PCR was performed using THUNDERBIRD^TM Next SYBR® qPCR Mix (Toyobo Research Reagents, Osaka, Japan) in CFX96 Touch Real-Time PCR Detection System (Bio-Rad Laboratories, San Jose, CA, USA). The genes tested and the respective primers (purchased from Integrated DNA Technologies, Coralville, IA, USA) used in the study are shown in Table 1. β-actin was used as a reference gene for the normalisation of target gene expression. The 2^−ΔΔCt method was used to measure the relative expression of target genes.

PRDX1 = assay: qPCR gene expression in Hepa1c1c-7 cells: PRDX1; assay type: cell-based, mouse; conditions: 1 μM, 48 h, Hepa-1c1c7 cells
Protocol: as §1

G6PDX = assay: qPCR gene expression in Hepa1c1c-7 cells: G6PDX; assay type: cell-based, mouse; conditions: 1 μM, 48 h, Hepa-1c1c7 cells
Protocol: as §1

[2] = system: free thiol content in NRF2-proficient BV-2 cells; assay: Thiol quantification assay in BV-2 cells; assay type: cell-based, mouse
Protocol: The anti-inflammatory activity of the STCs was determined in E. coli lipopolysaccharide (LPSEc; Sigma Aldrich, USA)-induced inflammation in NRF2-proficient and NRF2 siRNA-transfected mouse microglial (BV-2) cells. The NRF2 was silenced in BV-2 cells using NRF2 siRNA (Santa Cruz Biotechnology, Dallas, TX, USA) in Opti-MEM transfection medium (Thermo Fisher Scientific, USA) using Lipofectamine^TM LTX reagent with PLUS^TM reagent (Thermo Fisher Scientific, USA) following the manufacturer’s protocol and reported method. The cells (5 × 10^5 cells/well) were allowed to form a monolayer by incubating them for 24 h and then adding LPSEc (200 ng/mL) for 4 h. […] The nitric oxide (NO) level in cell supernatant was determined using the Griess reagent kit (Thermo Fisher Scientific, USA). The levels of proinflammatory cytokines (IL-1β, IL-6, IFN-γ, and TNF-α) in cell supernatant solutions were determined using commercially available ELISA kits (Abcam, Cambridge, UK). […] The protein concentration was determined using Bradford’s assay kit (Thermo Fisher Scientific, USA) following the manufacturer’s instructions. The expression of COX-2, NF-κB p65, NRF2, and HO-1 in cell lysates was determined using commercially available ELISA kits (Abcam, St, Louis, Missouri, USA) following the manufacturer’s protocol. In addition, the thiol content was determined using a thiol quantification assay kit (Abcam, USA).

GPX2 = assay: qPCR gene expression in Hepa1c1c-7 cells: GPX2; assay type: cell-based, mouse; conditions: 1 μM, 48 h, Hepa-1c1c7 cells
Protocol: as §1

GSTA4 = assay: qPCR gene expression in Hepa1c1c-7 cells: GSTA4; assay type: cell-based, mouse; conditions: 1 μM, 48 h, Hepa-1c1c7 cells
Protocol: as §1

GCLM = assay: qPCR gene expression in Hepa1c1c-7 cells: GCLM; assay type: cell-based, mouse; conditions: 1 μM, 48 h, Hepa-1c1c7 cells
Protocol: as §1

TXNRD1 = assay: qPCR gene expression in Hepa1c1c-7 cells: TXNRD1; assay type: cell-based, mouse; conditions: 1 μM, 48 h, Hepa-1c1c7 cells
Protocol: as §1

GCLC = assay: qPCR gene expression in Hepa1c1c-7 cells: GCLC; assay type: cell-based, mouse; conditions: 1 μM, 48 h, Hepa-1c1c7 cells
Protocol: as §1

GSTP1 = assay: qPCR gene expression in Hepa1c1c-7 cells: GSTP1; assay type: cell-based, mouse; conditions: 1 μM, 48 h, Hepa-1c1c7 cells
Protocol: as §1

HMOX1 = assay: qPCR gene expression in Hepa1c1c-7 cells: HMOX1; assay type: cell-based, mouse; conditions: 1 μM, 48 h, Hepa-1c1c7 cells
Protocol: as §1

SMILES: COc1cc(CCC(=O)/C=C/c2ccc([N+](=O)[O-])s2)ccc1O [STC8, (E)-5-(4-Hydroxy-3-methoxyphenyl)-1-(5-nitrothiophen-2-yl)pent-1-en-3-one]
- viability at 24 h, 2.5 µM ([1]; concentrations ≥ 2.5 μM): < 90%

SMILES: CCCCC/C=C/C(=O)CCc1ccc(O)c(OC)c1 [6-shogaol, reference compound]
- GSTM2 gene expression foldchange (compared to control) (GSTM2): 1.19 ± 0.05
- viability at 24 h, 5 µM ([1]; concentrations ≥ 5 μM): < 90%
- PRDX1 gene expression foldchange (compared to control) (PRDX1): 1.37 ± 0.07
- G6PDX gene expression foldchange (compared to control) (G6PDX): 2.27 ± 0.03
- free thiol content ([2]; NRF2-proficient BV-2 cells, untreated cells = 100%): 35.03 ± 3.70%
- GPX2 gene expression foldchange (compared to control) (GPX2): 1.63 ± 0.06
- GSTA4 gene expression foldchange (compared to control) (GSTA4): 1.53 ± 0.02
- GCLM gene expression foldchange (compared to control) (GCLM): 2.28 ± 0.10
- TXNRD1 gene expression foldchange (compared to control) (TXNRD1): 1.20 ± 0.08
- GCLC gene expression foldchange (compared to control) (GCLC): 1.20 ± 0.05
- GSTP1 gene expression foldchange (compared to control) (GSTP1): 2.12 ± 0.09
- HMOX1 gene expression foldchange (compared to control) (HMOX1): 1.34 ± 0.05

SMILES: COc1cc(CCC(=O)/C=C/c2cc(-c3ccccc3)cs2)ccc1O [STC5, (E)-5-(4-Hydroxy-3-methoxyphenyl)-1-(4-phenylthiophen-2-yl)pent-1-en-3-one]
- GSTM2 gene expression foldchange (compared to control) (GSTM2): 3.19 ± 0.05
- PRDX1 gene expression foldchange (compared to control) (PRDX1): 3.04 ± 0.09
- G6PDX gene expression foldchange (compared to control) (G6PDX): 3.83 ± 0.02
- reactivity with thiols lower than that of 6-shogaol ([2]; versus 6-shogaol): about 70%
- GPX2 gene expression foldchange (compared to control) (GPX2): 3.25 ± 0.11
- GSTA4 gene expression foldchange (compared to control) (GSTA4): 2.52 ± 0.03
- GCLM gene expression foldchange (compared to control) (GCLM): 3.91 ± 0.09
- TXNRD1 gene expression foldchange (compared to control) (TXNRD1): 2.52 ± 0.06
- GCLC gene expression foldchange (compared to control) (GCLC): 2.31 ± 0.05
- GSTP1 gene expression foldchange (compared to control) (GSTP1): 3.71 ± 0.09
- HMOX1 gene expression foldchange (compared to control) (HMOX1): 3.01 ± 0.10
